The assay concerns the target SMARCA2 (Homo sapiens, UniProt P51531). Kind of assay: MSD SMARCA2 degradation in NCI-H1299 cell line (24 h). It counts as cell-based. Also noted: HC: NCI-H1299 cells treated with DMSO; host or cells: NCI-H1299. The following applies: for DC50: NCI-H1299 cells, read-out: SMARCA2 MSD H1299 degradation 24 h: External Abs-DC50; for Dmax: NCI-H1299, NCI-H1299 cells. The method, then: Example 32. MSD SMARCA2 Degradation in […] Cell Line
Cell Culture: Cells were cultured in exponential growth phase.
Compound Preparation and Treatment: NCI-H1299 cells were seeded into the 96-well plate at 4.0*10^4 cells per 100 ul per well. Incubate the plate in the incubator overnight. The next day, compounds were diluted to designed stock concentration by TECAN, then perform a 3 fold, 9-point dilution via transferring 15 uL compound into 30 μL DMSO using Apricot. 200 nL diluted compound from compound source plate were transferred into the 96-intermediate plate as designated by using Echo550, followed with 100 ul culture medium to make the 2× compound solution. Cell plate were changed with 80 ul of fresh culture medium and 80 ul of 2× compound solution was added into the well to achieve the final designed concentration. Cell plate was then shaken at 720 rpm for 5 min and incubated for 24 hours in the incubator.
Sample Preparation: Media was aspirated from the cultures and the plate was washed with PBS twice. 60 ul of pre-chilled PIPA lysis buffer (Boston BioProducts BP-115D) with protease inhibitor were directly added into the well to lyze the cells for 20 minutes at 4° C. Cell lysates were collected.
MSD Procedure: The MSD plate was coated with 40 ul cell lysate and incubated at 4° C. overnight. The next day, the MSD coated bare plate was washed 3 times with 150 ul 1×TBST per well, blocked with 150 ul of blocking buffer per well, and shaken for 1 hour at RT, 600 rpm. Blocking buffer was 3% Blocker A in TBST. MSD plate was then washed 3 times with 150 ul 1×TBST per well and Primary Detection antibody (Rabbit anti-SMARCA2/BRM antibody, 100 μg/ml, ab223735) was added to a final [conc.]: 0.3 ug/ml, 25 ul/well and shaken for 1 hour at RT, 600 rpm. Antibody was prepared in Antibody Detection buffer (1% Blocker A in 1×TBST). The MSD plate was then washed 3 times with 150 ul 1×TBST per well. Secondary Detection antibody (SULFO-TAG anti-species antibody) was then added to a final [conc.]: 1 ug/ml, 25 ul/well, and shaken for 1 hour at RT, 600 rpm. Antibodies were prepared in Antibody Detection buffer (1% Blocker A in 1×TBST). MSD plate was washed 3 times with 150 ul 1×TBST per well and 2×MSD reading buffer was added, 150 ul per well, and diluted from 4× with water. MSD instrument was then read.
Data Analysis: The percentage of relative level of SMARCA2 level was calculated following equation below.
LC: A2780, SMARCA2 negative cells. HC: NCI-H1299 cells treated with DMSO.
The letter codes for the percentage of SMARCA2 degradation after 24 hours (Dmax %) include: A (>90% degradation), B (>70-90 degradation), C (50-70 degradation), and D (<50% degradation).

Where only a bound is given, the exact number is not on record here.

Sequence of SMARCA2 (P51531 whole entry): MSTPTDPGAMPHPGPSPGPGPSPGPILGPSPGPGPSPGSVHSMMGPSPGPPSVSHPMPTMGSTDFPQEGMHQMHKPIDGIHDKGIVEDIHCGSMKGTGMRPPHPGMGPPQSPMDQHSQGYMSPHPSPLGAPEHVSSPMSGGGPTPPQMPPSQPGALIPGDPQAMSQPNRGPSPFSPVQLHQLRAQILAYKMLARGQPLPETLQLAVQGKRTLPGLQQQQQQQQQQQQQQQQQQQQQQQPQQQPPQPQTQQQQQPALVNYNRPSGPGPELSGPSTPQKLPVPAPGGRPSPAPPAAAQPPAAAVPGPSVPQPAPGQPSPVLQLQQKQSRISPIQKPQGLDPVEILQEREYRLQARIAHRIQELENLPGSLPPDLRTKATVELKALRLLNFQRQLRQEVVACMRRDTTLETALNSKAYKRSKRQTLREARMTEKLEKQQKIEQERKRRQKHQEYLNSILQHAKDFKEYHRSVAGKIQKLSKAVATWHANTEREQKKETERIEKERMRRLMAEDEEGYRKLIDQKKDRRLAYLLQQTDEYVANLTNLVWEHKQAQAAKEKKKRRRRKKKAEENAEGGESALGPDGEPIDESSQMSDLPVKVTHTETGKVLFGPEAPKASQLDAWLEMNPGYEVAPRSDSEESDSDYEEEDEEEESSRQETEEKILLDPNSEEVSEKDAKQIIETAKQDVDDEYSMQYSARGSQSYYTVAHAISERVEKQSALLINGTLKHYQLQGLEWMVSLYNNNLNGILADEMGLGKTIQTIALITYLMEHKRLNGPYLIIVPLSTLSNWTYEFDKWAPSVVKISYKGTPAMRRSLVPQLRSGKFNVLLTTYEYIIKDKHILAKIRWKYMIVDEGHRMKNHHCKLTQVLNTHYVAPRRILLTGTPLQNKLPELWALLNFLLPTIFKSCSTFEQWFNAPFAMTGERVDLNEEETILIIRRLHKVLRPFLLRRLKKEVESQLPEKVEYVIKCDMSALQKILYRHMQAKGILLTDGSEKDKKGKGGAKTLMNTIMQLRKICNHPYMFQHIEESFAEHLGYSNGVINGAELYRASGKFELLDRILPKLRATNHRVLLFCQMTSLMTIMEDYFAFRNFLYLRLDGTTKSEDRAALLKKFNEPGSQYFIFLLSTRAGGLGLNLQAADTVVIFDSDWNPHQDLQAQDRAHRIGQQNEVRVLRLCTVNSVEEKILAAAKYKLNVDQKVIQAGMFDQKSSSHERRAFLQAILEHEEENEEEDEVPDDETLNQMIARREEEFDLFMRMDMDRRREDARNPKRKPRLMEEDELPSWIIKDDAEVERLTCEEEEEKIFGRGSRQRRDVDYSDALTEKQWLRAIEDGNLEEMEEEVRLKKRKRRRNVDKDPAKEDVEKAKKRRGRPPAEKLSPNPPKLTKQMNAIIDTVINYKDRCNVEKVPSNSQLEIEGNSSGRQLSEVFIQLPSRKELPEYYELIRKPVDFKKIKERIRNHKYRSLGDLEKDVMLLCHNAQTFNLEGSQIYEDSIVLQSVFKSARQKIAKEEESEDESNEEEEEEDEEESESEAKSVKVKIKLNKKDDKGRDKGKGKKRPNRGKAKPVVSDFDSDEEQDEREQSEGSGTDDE

Take `O=C1CCC(N2C(=O)c3cccc(OCCc4cn(Cc5cccc(N6C[C@H]7C[C@@H]6CN7/C=C/C(=O)c6ccccc6O)n5)nn4)c3C2=O)C(=O)N1` (some centres unmarked) [I-35]: the DC50 (as a rule, the midpoint of the concentration-degradation curve) was above 1000 nM.
As to `O=C1CCC(N2C(=O)c3cccc(OCCCc4cn(Cc5cccc(N6C[C@H]7C[C@@H]6CN7/C=C/C(=O)c6ccccc6O)n5)nn4)c3C2=O)C(=O)N1` (stereo partly drawn) [I-36, 2-(2,6-dioxo-3-piperidyl)-4-[3-[1-[[6-[(1R,4R)-5-[(E)-3-(2-hydroxyphenyl)-3-oxo-prop-1-enyl]-2,5-diazabicyclo[2.2.1]heptan-2-yl]-2-pyridyl]methyl]triazol-4-yl]propoxy]isoindoline-1,3-dione], the DC50 was above 1000 nM.
`O=C1CCC(N2C(=O)c3cccc(OCCCCc4cn(Cc5cccc(N6C[C@H]7C[C@@H]6CN7/C=C/C(=O)c6ccccc6O)n5)nn4)c3C2=O)C(=O)N1` (some centres unmarked) [I-37]: the Dmax (as a rule, the greatest extent of degradation seen) was above 90% and the DC50 fell in the range of 501 to 1000 nM.
For `O=C1CCC(N2C(=O)c3cccc(NCCOCc4cn(Cc5cccc(N6C[C@H]7C[C@@H]6CN7/C=C/C(=O)c6ccccc6O)n5)nn4)c3C2=O)C(=O)N1` (some centres unmarked) [I-38], the DC50 was above 1000 nM.
On to `O=C1CCC(N2C(=O)c3cccc(OCCOCCc4cn(Cc5cccc(N6C[C@H]7C[C@@H]6CN7/C=C/C(=O)c6ccccc6O)n5)nn4)c3C2=O)C(=O)N1` (some centres unmarked) [I-39], for which the DC50 is above 1000 nM.
On to `O=C1CCC(N2C(=O)c3cccc(OCCOCCCc4cn(Cc5cccc(N6C[C@H]7C[C@@H]6CN7/C=C/C(=O)c6ccccc6O)n5)nn4)c3C2=O)C(=O)N1` (some centres unmarked) [I-40], for which the 50% degradation concentration (DC50) was above 1000 nM.
For the molecule `CN1C(=O)CCC(N2C(=O)c3cccc(OCCCCc4cn(Cc5cccc(N6C[C@H]7C[C@@H]6CN7/C=C/C(=O)c6ccccc6O)n5)nn4)c3C2=O)C1=O` (some centres unmarked) [I-41], the DC50 is above 1000 nM.
Regarding `CC(c1ccc(CNCCOCCOCCOCCCc2ccc3c(c2)n(C)c(=O)n3C2CCC(=O)NC2=O)cc1)n1cc(-c2cc(-c3ccccc3O)nnc2N)cn1` (centres unmarked) [I-42, 3-(5-(1-(4-(1-(4-(3-amino-6-(2-hydroxyphenyl)pyridazin-4-yl)-1H-pyrazol-1-yl)ethyl)phenyl)-5,8,11-trioxa-2-azatetradecan-14-yl)-3-methyl-2-oxo-2,3-dihydro-1H-benzo[d]imidazol-1-yl)piperidine-2,6-dione], the DC50 is above 1000 nM.
In the case of `Nc1nnc(-c2ccccc2O)cc1N1C[C@H]2C[C@@H]1CN2c1cccc(Cn2cc(CCCCOc3cccc4c3C(=O)N(C3CCC(=O)NC3=O)C4=O)nn2)n1` (some centres unmarked) [I-43], the Dmax lay within 70 to 90% and the DC50 is above 1000 nM.
Regarding `Cn1c(=O)n(C2CCC(=O)NC2=O)c2ccc(CCCCc3cn(Cc4cccc(N5C[C@H]6C[C@@H]5CN6/C=C/C(=O)c5ccccc5O)n4)nn3)cc21` (some centres unmarked) [I-44], the Dmax was below 50% and the DC50 was above 1000 nM.
`Cn1c(=O)n(C2CCC(=O)NC2=O)c2ccc(CCCCCc3cn(Cc4cccc(N5C[C@H]6C[C@@H]5CN6/C=C/C(=O)c5ccccc5O)n4)nn3)cc21` (some centres unmarked) [I-45]: the Dmax was below 50% and the DC50 was above 1000 nM.
`Cn1c(=O)n(C2CCC(=O)NC2=O)c2ccc(CCCCCCc3cn(Cc4cccc(N5C[C@H]6C[C@@H]5CN6/C=C/C(=O)c5ccccc5O)n4)nn3)cc21` (stereo partly drawn) [I-46, 3-(5-(6-(1-((6-((1R,4R)-5-((E)-3-(2-hydroxyphenyl)-3-oxoprop-1-en-1-yl)-2,5-diazabicyclo[2.2.1]heptan-2-yl)pyridin-2-yl)methyl)-1H-1,2,3-triazol-4-yl)hexyl)-3-methyl-2-oxo-2,3-dihydro-1H-benzo[d]imidazol-1-yl)piperidine-2,6-dione]: the greatest degradation seen (Dmax) lay within 50 to 70% and the DC50 is above 1000 nM.
On the same counts, the results for `Cn1c(=O)n(C2CCC(=O)NC2=O)c2ccc(CCCCCCCc3cn(Cc4cccc(N5C[C@H]6C[C@@H]5CN6/C=C/C(=O)c5ccccc5O)n4)nn3)cc21` (some centres unmarked) [I-47] are below 50% and above 1000 nM.
On the same counts, the results for `Cn1c(=O)n(C2CCC(=O)NC2=O)c2ccc(CCCCCCCCc3cn(Cc4cccc(N5C[C@H]6C[C@@H]5CN6/C=C/C(=O)c5ccccc5O)n4)nn3)cc21` (some centres unmarked) [I-48] are below 50% and above 1000 nM.
Consider `Cn1c(=O)n(C2CCC(=O)NC2=O)c2cccc(CCCCc3cn(Cc4cccc(N5C[C@H]6C[C@@H]5CN6/C=C/C(=O)c5ccccc5O)n4)nn3)c21` (some centres unmarked) [I-49], for which the Dmax fell in the range of 70 to 90% and the DC50 was in the range of 100 to 500 nM.
Regarding `Cn1c(=O)n(C2CCC(=O)NC2=O)c2cccc(CCCCCc3cn(Cc4cccc(N5C[C@H]6C[C@@H]5CN6/C=C/C(=O)c5ccccc5O)n4)nn3)c21` (some centres unmarked) [I-50], the Dmax is below 50% and the DC50 was above 1000 nM.
As to `Cn1c(=O)n(C2CCC(=O)NC2=O)c2cccc(CCCCCCc3cn(Cc4cccc(N5C[C@H]6C[C@@H]5CN6/C=C/C(=O)c5ccccc5O)n4)nn3)c21` (some centres unmarked) [I-51], the Dmax is below 50% and the DC50 was above 1000 nM.
`Cn1c(=O)n(C2CCC(=O)NC2=O)c2cccc(CCCCCCCc3cn(Cc4cccc(N5C[C@H]6C[C@@H]5CN6/C=C/C(=O)c5ccccc5O)n4)nn3)c21` (some centres unmarked) [I-52]: the Dmax is below 50% and the DC50 was above 1000 nM.
As to `Cn1c(=O)n(C2CCC(=O)NC2=O)c2cccc(CCCCCCCCc3cn(Cc4cccc(N5C[C@H]6C[C@@H]5CN6/C=C/C(=O)c5ccccc5O)n4)nn3)c21` (some centres unmarked) [I-53], the Dmax was below 50% and the DC50 is above 1000 nM.
In the case of `O=C1CCC(n2c(=O)n(CCCCc3cn(Cc4cccc(N5C[C@H]6C[C@@H]5CN6/C=C/C(=O)c5ccccc5O)n4)nn3)c3ccccc32)C(=O)N1` (some centres unmarked) [I-54], the Dmax is below 50% and the DC50 is above 1000 nM.
For the molecule `O=C1CCC(n2c(=O)n(CCCCCc3cn(Cc4cccc(N5C[C@H]6C[C@@H]5CN6/C=C/C(=O)c5ccccc5O)n4)nn3)c3ccccc32)C(=O)N1` (stereo partly drawn) [I-55, 3-[3-[5-[1-[[6-[(1R,4R)-5-[(E)-3-(2-hydroxyphenyl)-3-oxo-prop-1-enyl]-2,5-diazabicyclo[2.2.1]heptan-2-yl]-2-pyridyl]methyl]triazol-4-yl]pentyl]-2-oxo-benzimidazol-1-yl]piperidine-2,6-dione], the Dmax was below 50% and the DC50 is above 1000 nM.
Regarding `O=C1CCC(n2c(=O)n(CCCCCCc3cn(Cc4cccc(N5C[C@H]6C[C@@H]5CN6/C=C/C(=O)c5ccccc5O)n4)nn3)c3ccccc32)C(=O)N1` (some centres unmarked) [I-56], the Dmax is below 50% and the DC50 is above 1000 nM.
Regarding `O=C1CCC(n2c(=O)n(CCCCCCCc3cn(Cc4cccc(N5C[C@H]6C[C@@H]5CN6/C=C/C(=O)c5ccccc5O)n4)nn3)c3ccccc32)C(=O)N1` (some centres unmarked) [I-57], the Dmax is below 50% and the 50% degradation concentration (DC50) was above 1000 nM.
Regarding `O=C1CCC(n2c(=O)n(CCCCCCCCc3cn(Cc4cccc(N5C[C@H]6C[C@@H]5CN6/C=C/C(=O)c5ccccc5O)n4)nn3)c3ccccc32)C(=O)N1` (some centres unmarked) [I-58], the Dmax is below 50% and the DC50 was above 1000 nM.
Consider `Cn1c(=O)n(C2CCC(=O)NC2=O)c2ccc(C#CCCc3cn(Cc4cccc(N5C[C@H]6C[C@@H]5CN6/C=C/C(=O)c5ccccc5O)n4)nn3)cc21` (some centres unmarked) [I-59], for which the maximal degradation (Dmax) was below 50% and the DC50 was above 1000 nM.
In the same order, the values of `Cn1c(=O)n(C2CCC(=O)NC2=O)c2ccc(C#CCCCc3cn(Cc4cccc(N5C[C@H]6C[C@@H]5CN6/C=C/C(=O)c5ccccc5O)n4)nn3)cc21` (some centres unmarked) [I-60] are below 50% and above 1000 nM.
As to `Cn1c(=O)n(C2CCC(=O)NC2=O)c2ccc(C#CCCCCc3cn(Cc4cccc(N5C[C@H]6C[C@@H]5CN6/C=C/C(=O)c5ccccc5O)n4)nn3)cc21` (some centres unmarked) [I-61], the Dmax is below 50% and the DC50 is above 1000 nM.

Values taken from patent publication US12624044B2, “SMARCA degraders and uses thereof” (Kymera Therapeutics, Inc., priority 2019, dated 2026).
